According to ChEMBL document CHEMBL3885881, “DrugMatrix”:

Organism: Rattus norvegicus
Assay: DrugMatrix - Regimen: Daily Repeat
Format: toxicity, organism-based, Sprague-Dawley
Parameters: regimen Daily Repeat, gender Male, age 6-8 weeks
Conditions: in vivo, po, route oral GAVAGE, […]
[1] = 0 mg/kg, 72 h, tissue Blood, dose level Control, time 3 day
[2] = 0 mg/kg, 72 h, tissue Plasma, dose level Control, time 3 day
[3] = 0 mg/kg, 120 h, tissue Blood, dose level Control, time 5 day
[4] = 0 mg/kg, 120 h, tissue Plasma, dose level Control, time 5 day
[5] = 72 h, tissue Blood, dose 6.3 mg/Kg, dose level Low, time 3 day
[6] = 72 h, tissue Plasma, dose 6.3 mg/Kg, dose level Low, time 3 day
[7] = 120 h, tissue Blood, dose 6.3 mg/Kg, dose level Low, time 5 day
[8] = 120 h, tissue Plasma, dose 6.3 mg/Kg, dose level Low, time 5 day

ZIRCONIUM(IV) CHLORIDE
ABSOLUTE BASOPHIL [1]: 0 CELLS/uL
ABSOLUTE EOSINOPHIL [1]: 13.67 CELLS/uL
ABSOLUTE LYMPHOCYTE [1]: 10069.5 CELLS/uL
ABSOLUTE MONOCYTE [1]: 50 CELLS/uL
ABSOLUTE SEGMENTED NEUTROPHIL [1]: 516.83 CELLS/uL
BASOPHIL [1]: 0%
EOSINOPHIL [1]: 0.17%
ERYTHROCYTE COUNT [1]: 5.44 x10E6/uL
HEMATOCRIT [1]: 33.88%
HEMOGLOBIN [1]: 13.23 G/DL
LEUKOCYTE COUNT [1]: 10.65 x10E3/uL
LYMPHOCYTE [1]: 94.67%
MEAN CORPUSCULAR HEMOGLOBIN [1]: 24.37 pg
MEAN CORPUSCULAR HEMOGLOBIN CONCENTRATION [1]: 39.05 G/DL
MONOCYTE [1]: 0.67%
NEUTROPHIL [1]: 4.5%
NUCLEATED RED BLOOD CELLS [1]: 0.33 /100WBC
PLATELET COUNT [1]: 414.5 x10E3/uL
ALANINE AMINOTRANSFERASE [2]: 72 u/L
ALKALINE PHOSPHATASE [2]: 375 u/L
ASPARTATE AMINOTRANSFERASE [2]: 87.5 u/L
BLOOD UREA NITROGEN [2]: 14 mg/dL
CARBON DIOXIDE [2]: 27.5 mmol/L
CHLORIDE [2]: 95.83 MEQ/L
CHOLESTEROL [2]: 68.5 mg/dL
CREATINE PHOSPHOKINASE [2]: 284.33 u/L
CREATININE [2]: 0.16 mg/dL
LACTATE DEHYDROGENASE [2]: 101.83 u/L
PHOSPHORUS [2]: 10.33 mg/dL
POTASSIUM [2]: 5.22 MEQ/L
TOTAL BILIRUBIN [2]: 0.13 mg/dL
TOTAL PROTEIN [2]: 5.43 G/DL
URIC ACID [2]: 0.8 mg/dL
ABSOLUTE BASOPHIL [3]: 0 CELLS/uL
ABSOLUTE EOSINOPHIL [3]: 20.67 CELLS/uL
ABSOLUTE LYMPHOCYTE [3]: 11518.33 CELLS/uL
ABSOLUTE MONOCYTE [3]: 47 CELLS/uL
ABSOLUTE SEGMENTED NEUTROPHIL [3]: 614 CELLS/uL
BASOPHIL [3]: 0%
EOSINOPHIL [3]: 0.17%
ERYTHROCYTE COUNT [3]: 5.61 x10E6/uL
HEMATOCRIT [3]: 34.25%
LEUKOCYTE COUNT [3]: 12.2 x10E3/uL
LYMPHOCYTE [3]: 94.33%
MEAN CORPUSCULAR HEMOGLOBIN [3]: 23.83 pg
MEAN CORPUSCULAR HEMOGLOBIN CONCENTRATION [3]: 39.08 G/DL
MEAN CORPUSCULAR VOLUME [3]: 61.03 fL
MONOCYTE [3]: 0.33%
NEUTROPHIL [3]: 5.17%
NUCLEATED RED BLOOD CELLS [3]: 0 /100WBC
PLATELET COUNT [3]: 941.83 x10E3/uL
ALANINE AMINOTRANSFERASE [4]: 68.83 u/L
ALKALINE PHOSPHATASE [4]: 492.67 u/L
ASPARTATE AMINOTRANSFERASE [4]: 83.33 u/L
BLOOD UREA NITROGEN [4]: 14 mg/dL
CARBON DIOXIDE [4]: 37 mmol/L
CHLORIDE [4]: 98.67 MEQ/L
CHOLESTEROL [4]: 56.5 mg/dL
CREATINE PHOSPHOKINASE [4]: 167.33 u/L
CREATININE [4]: 0.17 mg/dL
GLUCOSE [4]: 157.5 mg/dL
LACTATE DEHYDROGENASE [4]: 104.83 u/L
LIPASE [4]: 10 u/L
PHOSPHORUS [4]: 10.43 mg/dL
POTASSIUM [4]: 5.46 MEQ/L
TOTAL BILIRUBIN [4]: 0.17 mg/dL
TOTAL PROTEIN [4]: 5.72 G/DL
URIC ACID [4]: 0.85 mg/dL
ABSOLUTE BASOPHIL [5]: 0 CELLS/uL
ABSOLUTE EOSINOPHIL [5]: 0 CELLS/uL
ABSOLUTE LYMPHOCYTE [5]: 15285.67 CELLS/uL
ABSOLUTE MONOCYTE [5]: 331 CELLS/uL
ABSOLUTE SEGMENTED NEUTROPHIL [5]: 1716.67 CELLS/uL
BASOPHIL [5]: 0%
EOSINOPHIL [5]: 0%
ERYTHROCYTE COUNT [5]: 5.71 x10E6/uL
HEMOGLOBIN [5]: 13.97 G/DL
LEUKOCYTE COUNT [5]: 17.33 x10E3/uL
LYMPHOCYTE [5]: 88%
MEAN CORPUSCULAR HEMOGLOBIN CONCENTRATION [5]: 38.27 G/DL
MONOCYTE [5]: 2%
NEUTROPHIL [5]: 10%
NUCLEATED RED BLOOD CELLS [5]: 0 /100WBC
PLATELET COUNT [5]: 1101 x10E3/uL
ALANINE AMINOTRANSFERASE [6]: 74.67 u/L
ALKALINE PHOSPHATASE [6]: 510.33 u/L
ASPARTATE AMINOTRANSFERASE [6]: 87.33 u/L
BLOOD UREA NITROGEN [6]: 14.33 mg/dL
CARBON DIOXIDE [6]: 27 mmol/L
CHOLESTEROL [6]: 56.33 mg/dL
CREATINE PHOSPHOKINASE [6]: 244 u/L
CREATININE [6]: 0.15 mg/dL
GLUCOSE [6]: 186.67 mg/dL
LACTATE DEHYDROGENASE [6]: 186 u/L
PHOSPHORUS [6]: 12.53 mg/dL
POTASSIUM [6]: 5.75 MEQ/L
TOTAL BILIRUBIN [6]: 0.1 mg/dL
ABSOLUTE BASOPHIL [7]: 0 CELLS/uL
ABSOLUTE EOSINOPHIL [7]: 0 CELLS/uL
ABSOLUTE LYMPHOCYTE [7]: 13034.67 CELLS/uL
ABSOLUTE MONOCYTE [7]: 344.67 CELLS/uL
ABSOLUTE SEGMENTED NEUTROPHIL [7]: 1154 CELLS/uL
BASOPHIL [7]: 0%
EOSINOPHIL [7]: 0%
ERYTHROCYTE COUNT [7]: 6.21 x10E6/uL
HEMATOCRIT [7]: 38.6%
HEMOGLOBIN [7]: 14.47 G/DL
LEUKOCYTE COUNT [7]: 14.53 x10E3/uL
MEAN CORPUSCULAR HEMOGLOBIN [7]: 23.3 pg
MEAN CORPUSCULAR HEMOGLOBIN CONCENTRATION [7]: 37.47 G/DL
NEUTROPHIL [7]: 8%
NUCLEATED RED BLOOD CELLS [7]: 0 /100WBC
PLATELET COUNT [7]: 1100.67 x10E3/uL
ALANINE AMINOTRANSFERASE [8]: 68.67 u/L
ALKALINE PHOSPHATASE [8]: 472.33 u/L
ASPARTATE AMINOTRANSFERASE [8]: 84.33 u/L
BLOOD UREA NITROGEN [8]: 13.33 mg/dL
CARBON DIOXIDE [8]: 31.33 mmol/L
CHOLESTEROL [8]: 55.33 mg/dL
CREATINE PHOSPHOKINASE [8]: 232 u/L
CREATININE [8]: 0.14 mg/dL
LACTATE DEHYDROGENASE [8]: 112.67 u/L
PHOSPHORUS [8]: 11.63 mg/dL
POTASSIUM [8]: 6.33 MEQ/L
TOTAL BILIRUBIN [8]: 0.2 mg/dL
TOTAL PROTEIN [8]: 5.5 G/DL
